According to article PMC9743092, “Membrane-Active Cyclic Amphiphilic Peptides: Broad-Spectrum Antibacterial Activity Alone and in Combination with Antibiotics” (Journal of Medicinal Chemistry, 2022):
In brackets after ≈: the same amount, converted by molar mass. Like-named read-outs stand apart in the source and are kept apart here. Peptide text beside a SMILES is read from it.

Key:
[1] = test system: P. aeruginosa (ATCC 27883); assay: Synergistic checkerboard assay; format: cell-based; conditions: Pseudomonas aeruginosa
[2] = test system: K. pneumoniae (ATCC BAA-1705); conditions: antibiotic alone or physical mixture with peptide (1:1 w/w)
[3] = test system: P. aeruginosa (ATCC 27883); conditions: antibiotic alone or physical mixture with peptide (1:1 w/w)
[4] = test system: K. pneumoniae (ATCC BAA-1705); assay: Synergistic checkerboard assay; conditions: for MIC: Klebsiella pneumoniae, ATCCBAA1705, read-out: MIC antibiotic alone
[5] = test system: human red blood cells (hRBCs); conditions: red cells of human, 2 h
[6] = test system: K. pneumoniae (ATCC BAA-1705); conditions: 24 h, ≥99.9% kill
[7] = test system: P. aeruginosa (ATCC 27883); conditions: 24 h, ≥99.9% kill
E. coli (ATCC 25922) [8] = conditions: 24 h, ≥99.9% kill
E. coli (ATCC 25922) [9] = assay: Synergistic checkerboard assay; format: cell-based; conditions: Escherichia coli
[10] = test system: S. aureus (ATCC BAA-1556); assay: Synergistic checkerboard assay; format: cell-based; conditions: Staphylococcus aureus
MRSA (ATCC BAA-1556) = assay: microbe, parasite or virus in culture; conditions: Staphylococcus aureus
[11] = test system: P. aeruginosa (ATCC 27883); assay: microbe, parasite or virus in culture; conditions: Pseudomonas aeruginosa, ATCC27883, read-out: MIC P. aeruginosa (ATCC 27883)
[12] = test system: K. pneumoniae (ATCC BAA-1705); assay: microbe, parasite or virus in culture; conditions: Klebsiella pneumoniae
E. coli (ATCC 25922) [13] = assay: microbe, parasite or virus in culture; conditions: Escherichia coli
[14] = ATCC27883, checkerboard, read-out: MIC antibiotic alone
[15] = ATCC27883, read-out: MIC antibiotic alone
[16] = ATCC25922, read-out: MIC antibiotic alone
[17] = ATCCBAA1556, checkerboard, read-out: MIC antibiotic alone
[18] = read-out: MIC S. aureus (ATCC BAA-1556)
[19] = ATCC25922, checkerboard, read-out: MIC antibiotic alone
[20] = ATCCBAA1705, read-out: MIC K. pneumoniae (ATCC BAA-1705)
[21] = ATCC25922, read-out: MIC E. coli (ATCC 25922)

Structure (SMILES)	MIC [1, 14] [µg/mL]	MIC [4] [µg/mL]	MIC [10, 17] [µg/mL]	MIC (MRSA (ATCC BAA-1556); [18]) [µg/mL]	MIC [11] [µg/mL]	MIC [12, 20] [µg/mL]	MIC (E. coli (ATCC 25922) [13]; [21]) [µg/mL]	further results
CCC[C@@H]1C[C@@H](C(=O)N[C@@H]([C@H]2O[C@H](SC)[C@H](O)[C@@H](O)[C@H]2O)[C@H](C)Cl)N(C)C1 [clindamycin]	512	512						MIC K. pneumoniae (ATCC BAA-1705) [2]: 512 µg/mL (≈ 1200 µM); MIC P. aeruginosa (ATCC 27883) [3]: 512 µg/mL (≈ 1200 µM); MIC antibiotic alone ([4]; checkerboard): 512 µg/mL
N=C(N)NCCC[C@@H]1NC(=O)[C@H](CCCNC(=N)N)NC(=O)[C@H](CCCNC(=N)N)NC(=O)[C@H](Cc2c[nH]c3ccccc23)NC(=O)[C@H](Cc2c[nH]c3ccccc23)NC(=O)[C@H](Cc2c[nH]c3ccccc23)NC(=O)[C@H](Cc2c[nH]c3ccccc23)NC(=O)[C@H](CCCNC(=N)N)NC1=O [compound 1, [R4W4]] (cyclo(RRRRWWWW))								HC50 [5]: 175 µg/mL; MBC K. pneumoniae (ATCC BAA-1705) [6]: 64 µg/mL (≈ 46.7 µM); MBC P. aeruginosa (ATCC 27883) [7]: 128 µg/mL (≈ 93.5 µM); MBC E. coli (ATCC 25922) (E. coli (ATCC 25922) [8]): 32 µg/mL (≈ 23.4 µM)
C[C@H]1COc2c(N3CCN(C)CC3)c(F)cc3c(=O)c(C(=O)O)cn1c23.C[C@H]1COc2c(N3CCN(C)CC3)c(F)cc3c(=O)c(C(=O)O)cn1c23.O [levofloxacin]		64						MIC [1, 15]: 1 µg/mL; MIC (E. coli (ATCC 25922) [9]; [16]): 64 µg/mL
Cc1ncc([N+](=O)[O-])n1CCO [metronidazole]	32	256	32	32 (≈ 187 µM)	32 (≈ 187 µM)			MIC K. pneumoniae (ATCC BAA-1705) [2]: 256 µg/mL (≈ 1500 µM)
CN(C)[C@@H]1C(O)=C(C(N)=O)C(=O)[C@@]2(O)C(O)=C3C(=O)c4c(O)cccc4[C@@](C)(O)[C@H]3C[C@@H]12 [tetracycline]	32	[…]	0.25	0.25 (≈ 0.563 µM)	32 (≈ 72 µM)	[…]	8 (≈ 18 µM)	MIC (E. coli (ATCC 25922) [9]; [19]): 8 µg/mL
NC[C@H]1O[C@H](O[C@H]2[C@H](O)[C@@H](O[C@H]3O[C@H](CO)[C@@H](O)[C@H](N)[C@H]3O)[C@H](N)C[C@@H]2N)[C@H](N)C[C@@H]1O [tobramycin]	0.5	16	0.5	0.5 (≈ 1.07 µM)	0.5 (≈ 1.07 µM)	16 (≈ 34.2 µM)	8 (≈ 17.1 µM)	MIC (E. coli (ATCC 25922) [9]; [19]): 8 µg/mL
CN[C@H](CC(C)C)C(=O)N[C@H]1C(=O)N[C@@H](CC(N)=O)C(=O)N[C@H]2C(=O)N[C@H]3C(=O)N[C@H](C(=O)N[C@H](C(=O)O)c4cc(O)cc(O)c4-c4cc3ccc4O)[C@H](O)c3ccc(c(Cl)c3)Oc3cc2cc(c3O[C@@H]2O[C@H](CO)[C@@H](O)[C@H](O)[C@H]2O[C@H]2C[C@](C)(N)[C@H](O)[C@H](C)O2)Oc2ccc(cc2Cl)[C@H]1O [vancomycin]		512		1 (≈ 0.69 µM)	256 (≈ 177 µM)	512 (≈ 353 µM)	256 (≈ 177 µM)	MIC ([10]; ATCCBAA1556, read-out: MIC antibiotic alone): 1 µg/mL; MIC [1, 15]: 256 µg/mL; MIC (E. coli (ATCC 25922) [9]; [16]): 256 µg/mL; MIC (MRSA (ATCC BAA-1556); read-out: MIC MRSA (ATCC BAA-1556)): 1 µg/mL (≈ 0.69 µM); MIC ([12]; ATCCBAA1705, 24 h, read-out: MIC K. pneumoniae (ATCC BAA-1705)): 512 µg/mL (≈ 353 µM); MIC (E. coli (ATCC 25922) [13]; ATCC25922, 24 h, read-out: MIC E. coli (ATCC 25922)): 256 µg/mL (≈ 177 µM)
